Measured values: patent US20040096815A1, “Method of identifying an eventual modification of at least one biological parameter making use of living cells which are subjected to a stress and living cells which are not subjected to this same stress” (COLETICA, priority 2002, published 2004)
Like-named read-outs stand apart in the source and are kept apart here.

Legend:
[1] = test system: reconstructed gingival mucous membrane epithelia; experiment: mRNA Expression Array on reconstructed gingival mucous membrane epithelia treated with irritant/sensitizing agents or actives; assay type: cell-based; conditions: (treated/non-stressed)x100; 20 μl per epithelium 1 h, then 24 h; SLS 5%, LPS 1000 U/ml, Prednisolone 10 mM, Inhipase 3%
Source text: 1 to 2.10^6 epithelial cells of gingival mucous membrane called <<reference gingival mucous membrane epithelia cells>> (gingival biopsy, Passage 3 (3rd amplification by trypsination)), extracted as described in Example 1, are sown in Boyden chamber-type inserts (membrane of porosity 0.4 μm and diameter 10 mm—fibroblast nutrient under layer), in a DMEM-Glutamax/Ham F-12 (ratio 3/1 v/v) culture medium supplemented with 10% of Hyclone II calf serum, with ascorbic acid-2-phosphate at a final concentration of 1 millimolar, with EGF at a final concentration of 10 ng/mL, with hydrocortisone at a final concentration of 0.4 micrograms/milliliter, with umulin at a final concentration of 0.12 IU/milliliter, with isuprel at a final concentration of 0.4 micrograms/milliliter, with triiodothyronine at a final concentration of 2.10^−9 molar, with adenine at a final concentration of 24.3 micrograms/milliliter, with penicillin at a final concentration of 100 IU/milliliter, with amphotericin B at a final concentration of 1 microgram/milliliter, and with gentamycin at a final concentration of 20 micrograms/milliliter, and for a period of culture by immersion of 3 to 8 days.
The cultures of epithelial cells are then maintained in immersion for 12 to 18 days in the same culture medium as that used for the immersion culture, except the percentage of calf serum which is lowered by 10% to 1%.
At the end of experimentation, the medium is eliminated and replaced with PBS pH 7.4, and the reconstructed epithelia Which are present in the inserts are stressed by various potentially irritant or sensitizing agents, at the rate of 20 μl per epithelium and for one hour: 5% sodium lauryl sulfate (SLS), Lipopolysaccharide (LPS) 1000 U/ml, an anti-inflammatory agent Prednisolone 10 mM (Sigma) and an active Inhipase® 3% (extract of the root of pueraria lobata, Coletica) also at the rate of 20 μl per epithelium, for 1 hour. The agents applied on the reconstructed epithelia are then eliminated and then the reconstructed epithelia are incubated for 24 additional hours in immersion medium without calf serum. Certain reconstructed epithelia are analyzed in terms of cell viability by a test with MTT (methylthiazoletetrazolium). Other reconstructed epithelia are scraped off and taken up into Tri Reagent® (T9424 Sigma, St Louis USA) and then extracted with chloroform. After centrifugation at 12,000 g for 15 minutes at 4° C., the RNAs are found in the upper layer.
The determination of the mRNAs of the epithelia is made by Expression Array (R&D System), according to the protocol defined by the supplier.

[2] = test system: pigmented reconstructed skins; experiment: Interleukin secretion (Fluorokine MAP) of pigmented reconstructed skins under repeated solar irradiation with anti-oxidant actives; assay type: cell-based; conditions: for restoring cell viability and synthesis of pro-inflammatory interleukins after solar irradiation: actives at 3% in a cosmetic formulation; for IL1 beta secretion (Fluorokine MAP) / IL6 secretion (Fluorokine MAP) / IL8 secretion (Fluorokine MAP) / TNF alpha secretion (Fluorokine MAP): solar irradiation 561 KJ/m^2 twice per week for two weeks, 8 μl cosmetic formulation with active at 3%, 10 days
Experimental: The reconstructed dermis comprising cells called <<stressed cells>> or <<reference cells>> are then incubated in a medium without serum (FBM, Promocell) for 24 hours. The cell viability in the matrices is evaluated by a test with MTT (methylthiazoletetrazolium) and is expressed in percentage of the non-irradiated control. The media are collected, centrifuged, and the cytokines content is determined by the Fluorokine MAP kit (R&D Systems). Briefly, 50 μl of standards or of samples are pipetted into identified wells. 50 μl of microparticles immobilizing specific antibodies of different cytokines are added into the wells as a function of a pre-defined plate plan. After one hour of incubation under orbital agitation, and elimination of the non-fixed substances by washing, labeled antibodies which are specific of different cytokines are added into the wells and are incubated for 2 hours under orbital agitation. After washing, the microparticles are suspended in washing buffer, are agitated for 1 minute under orbital agitation. The reading is carried out immediately on a Luminex 100 Analyser (R&D Systems). The contents of the different cytokines which are present in the media analyzed are determined by virtue of calibration ranges made with highly purified recombinant human cytokines. This technique enables an experimentation to analyze the cellular secretion of various cytokines (IL-1β, IL-2, IL-4, IL-6, IL-8, IL-10, TNFα, GM-CSF, G-CSF, VEGF, bFGF, G-CSF, IFNγ).
The cells extracted are obtained from a mammary biopsy non-exposed to the stress studied. 400,000 fibroblasts, amplified until passage 5 (5th amplification by trypsination) as described in Example 1, are sown on dermal substrates based on surfaced sponges of collagen, in a DMEM-Glutamax culture medium supplemented with 10% of hyclone II calf serum, with ascorbic acid-2-phosphate at a final concentration of 1 millimolar, with EGF or Epidermal growth factor at a final concentration of 10 ng/mL, with penicillin at a final concentration of 100 IU/milliliter, with amphotericin B at a final concentration of 1 microgram/milliliter, and with gentamycin at a final concentration of 20 micrograms/milliliter, and for a period of culture of 14 days.
Then, 400,000 keratinocytes and 10,000 melanocytes, amplified until passage 2 (2nd amplification by trypsination) as described in Example 1, are sown on the dermal equivalents in a DMEM-Glutamax/Ham F-12 (ratio 3/1 v/v) culture medium supplemented with 10% of Hyclone II calf serum, with ascorbic acid-2-phosphate at a final concentration of 1 millimolar, with EGF at a final concentration of 10 ng/mL, with hydrocortisone at a final concentration of 0.4 micrograms/milliliter, with umulin at a final concentration of 0.12 IU/milliliter, with isuprel at a final concentration of 0.4 micrograms/milliliter, with triiodothyronine at a final concentration of 2.10^−9 molar, with adenine at a final concentration of 24.3 micrograms/milliliter, with penicillin at a final concentration of 100 IU/milliliter, with amphotericin B at a final concentration of 1 microgram/milliliter, and with gentamycin at a final concentration of 20 micrograms/milliliter, and for a period of immersion culture of 7 days.
The cultures are then placed at the air-liquid interface for 14 days in the same culture medium as that used for the immersion culture, except the calf serum, the hydrocortisone, the isuprel, the triiodothyronine and the umulin.
Twice per week and for two weeks, the immersion medium is eliminated and replaced by PBS at pH 7.4. Certain pigmented reconstructed skins present in the inserts are preserved at ambient temperature; this model comprises cells which are called “reference cells”. Other pigmented reconstructed skins present in the inserts are irradiated at 561 KJ/m^2 (corresponding to an average hour of exposure in Central Europe) with the aid of a solar irradiator Suntest CPS+ (ATLAS); this model comprises cells which are called “stressed cells”.

[3] = test system: reconstructed skins
Experimental: Reconstructed skins are made according to the protocol described in Example 6.
The UVB irradiation at the rate of 50 mJ/cm^2 is made for half the samples comprising <> cells. The other samples are preserved at ambient temperature under the same conditions, and constitute samples comprising <> cells.
At the end of experimentation, the content of tropoelastin mRNA, collagen of type I and collagen of type III is evaluated by a real time RT-PCR technique. For this, couples of primers enabling the amplification of specific fragments of tropoelastin, of collagen of type I and of collagen of type III (sense 18/antisense 19 and sense 18/antisense 20, respectively) and actin sequence primers (541 pairs of bases) were used. After extraction in TriReagent® (Sigma) and purification of the RNAs according to the protocol of the supplier, the reactions of RT-PCR (Reverse Polymerase Transcription Chain reactions) are carried out by quantitative real time RT-PCR with the aid of the <<Opticon>> system (MJ Research).
The reaction mixture (50 μl) introduced into the well is the following, for each sample:
10 μl of RNA at the concentration of 5 ng/μl.
The primers of the various labelers used
Reaction mixture (Qiagen-25 μl 2×QuantiTect SYBR Green RT-PCR master mix containing 5 mM MgCl2+0.5 μl QuantiTect RT mix), the labeler SYBR Green I inserting itself in the DNA double strand during elongation step).
Reverse transcription: 30 min at 50° C.,
PCR reactions: [15 sec at 94° C., 30 sec at 60° C. and 30 sec at 72° C.], 50 cycles.
The absence of contamination and the purity of the products amplified are verified by the melting curves of the amplified PCR products. The products having a double peak or an abnormal melting temperature are eliminated.
The incorporation of fluorescence in the amplified DNA was evaluated continuously during the PCR cycles. This system enables obtaining fluorescence measurement curves as a function of the number of PCR cycles and thus to evaluate a relative quantity of amplified DNA.
In order to take account of the:cell population present in the reconstructed skins, all the results were attributed to the signal <>, used as housekeeping gene.
According to the experimentation, the measurement threshold of the C(T) (=cycle threshold) is fixed for T between 0.05 and 0.01 and then an arbitrary unit of measurement is calculated for each gene according to the formula:
Sgene <>=10^7X(½)^C(T)gene <<X>>
C(T)gene <> signifying the measurement threshold of the C(T) (Cycle Threshold) of the gene <>.
The values of the genes of interest are attributed to the signal <> by calculation of the ratio:
These ratios are compared between the treated and non-treated samples.

[4] = UVB 50 mJ/cm^2, then 24 h with active at 1%
[5] = UVB 50 mJ/cm^2, then 24 h with active at 3%

Molecule | IL1α mRNA, factor of variation with respect to the non-stressed control [1] | IL1β mRNA, factor of variation with respect to the non-stressed control [1] | IL6 mRNA, factor of variation with respect to the non-stressed control [1] | IL7 mRNA, factor of variation with respect to the non-stressed control [1] | IL8 mRNA, factor of variation with respect to the non-stressed control [1] | IL10 mRNA, factor of variation with respect to the non-stressed control [1] | IL11 mRNA, factor of variation with respect to the non-stressed control [1] | IL12 mRNA, factor of variation with respect to the non-stressed control [1] | IL15 mRNA, factor of variation with respect to the non-stressed control [1] | IL-1R AcP mRNA, factor of variation with respect to the non-stressed control [1] | IL-1RI mRNA, factor of variation with respect to the non-stressed control [1] | IL-1RII mRNA, factor of variation with respect to the non-stressed control [1] | IL-1ra mRNA, factor of variation with respect to the non-stressed control [1] | PLA2 mRNA, factor of variation with respect to the non-stressed control [1] | TNFα mRNA, factor of variation with respect to the non-stressed control [1] | restoring cell viability and synthesis of pro-inflammatory interleukins after solar irradiation [2] | IL1 beta secretion (Fluorokine MAP) [2] | IL6 secretion (Fluorokine MAP) [2] | IL8 secretion (Fluorokine MAP) [2] | TNF alpha secretion (Fluorokine MAP) [2] | further results
C[C@]12C=CC(=O)C=C1CC[C@@H]1[C@@H]2[C@@H](O)C[C@@]2(C)[C@H]1CC[C@]2(O)C(=O)CO [Prednisolone] | 62 | 75 | 81 | 102 | 105 | 152 | 101 | 67 | 99 | 95 | 83 | 88 | 112 | 93 | 67 |  |  |  |  |  | 
CCCCCCCCCCCCOS(=O)(=O)[O-].[Na+] [SLS, sodium lauryl sulfate] | 241 | 114 | 163 | 127 | 183 | 75 | 112 | 132 | 147 | 102 | 154 | 137 | 82 | 102 | 213 |  |  |  |  |  | 
Hesperitine Laurate [Flavagrum ®] |  |  |  |  |  |  |  |  |  |  |  |  |  |  |  | have shown an effectiveness capable of tending to restoring the reference level for these two parameters | 125 pg/mL | 452 pg/mL | 312 pg/mL | 105 pg/mL | 
Quercitine Caprylate [Flavenger ®] |  |  |  |  |  |  |  |  |  |  |  |  |  |  |  | have shown an effectiveness capable of tending to restoring the reference level for these two parameters | 97 pg/mL | 426 pg/mL | 294 pg/mL | 89 pg/mL | limiting the UVB-induced increase in RNAs of collagen type I, type III and elastin ([3]; 1 and 3%): enables limiting the effects of the UVB stress induced by restoring, in a dose-dependent manner, the synthesis of these molecules; Collagen I mRNA, ratio R = Sgene/Sactin [3, 4]: 0.94; Collagen III mRNA, ratio R = Sgene/Sactin [3, 4]: 1.37; Elastin mRNA, ratio R = Sgene/Sactin [3, 4]: 4.87; Collagen I mRNA, ratio R = Sgene/Sactin [3, 5]: 0.92; Collagen III mRNA, ratio R = Sgene/Sactin [3, 5]: 1.26; Elastin mRNA, ratio R = Sgene/Sactin [3, 5]: 4.61
